Test results taken from PubChem BioAssay AID2060624 (Molecular Pharmacology Branch, DTP, NCI, 2025).

Test system: 217524-143-R1-J4-PDC spheroids with HUVEC/MSC, viability
Assay: Anticancer human tumor 217524-143-R1-J4-PDC patient-derived pancreatic carcinoma cell line growth inhibition [CLK]
Conditions: for IC50: curve of first compound; for viability, T/C: stronger effect = lower value
In short: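 Patient-derived tumor cells grown as complex spheroids with HUVEC endothelial cells and mesenchymal stem cells, treated with drug combinations. Concentrations descend in half-log steps from near clinical Cmax, or from 10 microM if Cmax unknown.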
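Note: spheroids exposed to agents for seven days before reading.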
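Throughout, for viability, T/C: 100% = DMSO vehicle control viability.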

In the case of `NC(=O)C(=Cn1cnc(-c2cc(C(F)(F)F)cc(C(F)(F)F)c2)n1)c1cncnc1` + CN1CCN(c2cc(C(=O)Nc3cc4cc(-c5cnn(C)c5)ccc4cn3)ccn2)CC1, the IC50 (second compound 0.0316 µM) is reported as 21.8 nM, the IC50 (second compound 0.1 µM) is reported as less than 9.49 nM and the IC50 (second compound 0.316 µM) is reported as less than 9.49 nM. For the same compound, the IC50 (second compound 1 µM) was less than 9.49 nM, the IC50 (second compound 3.16 µM) was less than 9.49 nM and the IC50 (second compound 10 µM) was less than 9.49 nM. For the same compound, the viability, T/C (second compound 0.0316 µM, first compound 0.00949 µM) was 80.7%, the viability, T/C (second compound 0.0316 µM, first compound 0.03 µM) was 39.1% and the viability, T/C (second compound 0.0316 µM, first compound 0.0949 µM) was 22.3%. The viability, T/C (second compound 0.0316 µM, first compound 0.3 µM) was 21.2%, the viability, T/C (second compound 0.0316 µM, first compound 0.949 µM) was 23.1% and the viability, T/C (second compound 0.0316 µM, first compound 3 µM) was 17.8%. It also gave a viability, T/C (second compound 0.1 µM, first compound 0.00949 µM) of 35.9%, a viability, T/C (second compound 0.1 µM, first compound 0.03 µM) of 23.7% and a viability, T/C (second compound 0.1 µM, first compound 0.0949 µM) of 14%. The viability, T/C (second compound 0.1 µM, first compound 0.3 µM) was 15.4%, the viability, T/C (second compound 0.1 µM, first compound 0.949 µM) was 14.6% and the viability, T/C (second compound 0.1 µM, first compound 3 µM) was 10.6%. For the same compound, the viability, T/C (second compound 0.316 µM, first compound 0.00949 µM) was 10.8%, the viability, T/C (second compound 0.316 µM, first compound 0.03 µM) was 8.91% and the viability, T/C (second compound 0.316 µM, first compound 0.0949 µM) was 4.48%. The viability, T/C (second compound 0.316 µM, first compound 0.3 µM) was 4%, the viability, T/C (second compound 0.316 µM, first compound 0.949 µM) was 1.55% and the viability, T/C (second compound 0.316 µM, first compound 3 µM) was 0.81%. The viability, T/C (second compound 1 µM, first compound 0.00949 µM) was 0.79%, the viability, T/C (second compound 1 µM, first compound 0.03 µM) was 0.59% and the viability, T/C (second compound 1 µM, first compound 0.0949 µM) was 0.94%. It also gave a viability, T/C (second compound 1 µM, first compound 0.3 µM) of 0.88%, a viability, T/C (second compound 1 µM, first compound 0.949 µM) of 0.76% and a viability, T/C (second compound 1 µM, first compound 3 µM) of 1.07%. It also gave a viability, T/C (second compound 3.16 µM, first compound 0.00949 µM) of 0.72%, a viability, T/C (second compound 3.16 µM, first compound 0.03 µM) of 0.67% and a viability, T/C (second compound 3.16 µM, first compound 0.0949 µM) of 0.62%. It also gave a viability, T/C (second compound 3.16 µM, first compound 0.3 µM) of 0.55%, a viability, T/C (second compound 3.16 µM, first compound 0.949 µM) of 0.69% and a viability, T/C (second compound 3.16 µM, first compound 3 µM) of 0.68%. The viability, T/C (second compound 10 µM, first compound 0.00949 µM) was 0.2%, the viability, T/C (second compound 10 µM, first compound 0.03 µM) was 0.17% and the viability, T/C (second compound 10 µM, first compound 0.0949 µM) was 0.21%. For the same compound, the viability, T/C (second compound 10 µM, first compound 0.3 µM) was 0.22%, the viability, T/C (second compound 10 µM, first compound 0.949 µM) was 0.24% and the viability, T/C (second compound 10 µM, first compound 3 µM) was 0.2%.
In the case of `CC(CO)NC(=O)c1cc(-c2ccc(Cl)cc2)nn(-c2cnn(C)c2)c1=O` (centres undefined) + CN1CCN(c2cc(C(=O)Nc3cc4cc(-c5cnn(C)c5)ccc4cn3)ccn2)CC1, the IC50 (second compound 0.0316 µM) is reported as greater than 10000 nM, the IC50 (second compound 0.1 µM) is reported as 229 nM and the IC50 (second compound 0.316 µM) is reported as less than 31.6 nM. It also gave an IC50 (second compound 1 µM) of less than 31.6 nM, an IC50 (second compound 3.16 µM) of less than 31.6 nM and an IC50 (second compound 10 µM) of less than 31.6 nM. For the same compound, the viability, T/C (second compound 0.0316 µM, first compound 0.0316 µM) was 81%, the viability, T/C (second compound 0.0316 µM, first compound 0.1 µM) was 83.5% and the viability, T/C (second compound 0.0316 µM, first compound 0.316 µM) was 68.8%. For the same compound, the viability, T/C (second compound 0.0316 µM, first compound 1 µM) was 71.7%, the viability, T/C (second compound 0.0316 µM, first compound 3.16 µM) was 92% and the viability, T/C (second compound 0.0316 µM, first compound 10 µM) was 54.1%. For the same compound, the viability, T/C (second compound 0.1 µM, first compound 0.0316 µM) was 73.4%, the viability, T/C (second compound 0.1 µM, first compound 0.1 µM) was 53.2% and the viability, T/C (second compound 0.1 µM, first compound 0.316 µM) was 47.8%. The viability, T/C (second compound 0.1 µM, first compound 1 µM) was 51%, the viability, T/C (second compound 0.1 µM, first compound 3.16 µM) was 53.9% and the viability, T/C (second compound 0.1 µM, first compound 10 µM) was 39.6%. The viability, T/C (second compound 0.316 µM, first compound 0.0316 µM) was 14.4%, the viability, T/C (second compound 0.316 µM, first compound 0.1 µM) was 19.4% and the viability, T/C (second compound 0.316 µM, first compound 0.316 µM) was 18.1%. It also gave a viability, T/C (second compound 0.316 µM, first compound 1 µM) of 18.6%, a viability, T/C (second compound 0.316 µM, first compound 3.16 µM) of 19.8% and a viability, T/C (second compound 0.316 µM, first compound 10 µM) of 16.7%. The viability, T/C (second compound 1 µM, first compound 0.0316 µM) was 1.96%, the viability, T/C (second compound 1 µM, first compound 0.1 µM) was 2.25% and the viability, T/C (second compound 1 µM, first compound 0.316 µM) was 2.62%. The viability, T/C (second compound 1 µM, first compound 1 µM) was 1.95%, the viability, T/C (second compound 1 µM, first compound 3.16 µM) was 1.85% and the viability, T/C (second compound 1 µM, first compound 10 µM) was 1.4%. The viability, T/C (second compound 3.16 µM, first compound 0.0316 µM) was 1.05%, the viability, T/C (second compound 3.16 µM, first compound 0.1 µM) was 1.27% and the viability, T/C (second compound 3.16 µM, first compound 0.316 µM) was 0.89%. The viability, T/C (second compound 3.16 µM, first compound 1 µM) was 0.99%, the viability, T/C (second compound 3.16 µM, first compound 3.16 µM) was 0.97% and the viability, T/C (second compound 3.16 µM, first compound 10 µM) was 0.84%. For the same compound, the viability, T/C (second compound 10 µM, first compound 0.0316 µM) was 0.26%, the viability, T/C (second compound 10 µM, first compound 0.1 µM) was 0.3% and the viability, T/C (second compound 10 µM, first compound 0.316 µM) was 0.26%. It also gave a viability, T/C (second compound 10 µM, first compound 1 µM) of 0.29%, a viability, T/C (second compound 10 µM, first compound 3.16 µM) of 0.33% and a viability, T/C (second compound 10 µM, first compound 10 µM) of 0.27%.
